This assay addresses DYRK1A (Homo sapiens, UniProt Q13627). As to the kind of experiment: Affinity testing of compounds with DYRK1A (KD). In kind it is binding. The following applies: DYRK1A affinity key classes.

As for `FC1(F)CCN(Cc2ccc(-c3cnc4ccc(-c5ccncc5)nn34)cc2)C1` [Compound 98, 3-(4-((3,3-difluoropyrrolidin-1-yl)methyl)phenyl)-6-(pyridin-4-yl)imidazo[1,2-b]pyridazine], the Kd fell in the range of 101 to 500 nM.
Then `CCOC(=O)c1ccc(-n2c(C)nc3ccc(-c4ccncc4)nc32)cc1` [Compound 40, ethyl 4-(2-methyl-5-(pyridin-4-yl)-3H-imidazo[4,5-b]pyridin-3-yl)benzoate], with 0.5 to 100 nM.
Next, `Cc1nc2ccc(-c3ccncc3)nc2n1-c1ccc(CN2CCS(=O)(=O)CC2)cc1` [Compound 126, 4-(4-(2-methyl-5-(pyridin-4-yl)-3H-imidazo[4,5-b]pyridin-3-yl)benzyl)thiomorpholine 1,1-dioxide]: 0.5 to 100 nM.
As to `Cc1nc2ccc(-c3cnn(C)c3)nc2n1-c1ccc2c(c1)OCO2` [Compound 31, 3-(benzo[d][1,3]dioxol-5-yl)-2-methyl-5-(1-methyl-1H-pyrazol-4-yl)-3H-imidazo[4,5-b]pyridine], the Kd fell in the range of 101 to 500 nM.
Then `c1cn2nc(-c3cn[nH]c3)ccc2n1` [Compound 26, 6-(1H-pyrazol-4-yl)imidazo[1,2-b]pyridazine], with 101 to 500 nM; and `Cc1nc2ccc(-c3cc[nH]c(=O)c3)nc2n1-c1ccc(CN2CCOCC2)cc1` [Compound 45, 4-(2-methyl-3-(4-(morpholinomethyl)phenyl)-3H-imidazo[4,5-b]pyridin-5-yl)pyridin-2(1H)-one], with 501 to 10000 nM; and `Cc1nc2cc(-c3ccnc(N)c3)cnc2[nH]1` [Compound 71, 4-(2-methyl-3H-imidazo[4,5-b]pyridin-6-yl)pyridin-2-amine], with 0.5 to 100 nM.
Next, `c1cc(-c2ccc3ncc(-c4ccc(CN5CCCCC5)cc4)n3n2)ccn1` [Compound 97, 3-(4-(piperidin-1-ylmethyl)phenyl)-6-(pyridin-4-yl)imidazo[1,2-b]pyridazine]: 0.5 to 100 nM.
Next, `Cc1nc2ccc(-c3ccnc(N)c3)nc2n1-c1ccc(CN2CCOCC2)cc1` [Compound 44, 4-(2-methyl-3-(4-(morpholinomethyl)phenyl)-3H-imidazo[4,5-b]pyridin-5-yl)pyridin-2-amine]: 0.5 to 100 nM; `O=C(O)c1ccc(-n2cnc3cc(F)c(-c4ccncc4)cc32)cc1` [Compound 8, 4-(5-fluoro-6-(pyridin-4-yl)-1H-benzo[d]imidazol-1-yl)benzoic acid]: 101 to 500 nM.
`Fc1cc(-c2cnc3ccc(-c4ccncc4)nn23)ccc1CN1CCCCC1` [Compound 79, 3-(3-fluoro-4-(piperidin-1-ylmethyl)phenyl)-6-(pyridin-4-yl)imidazo[1,2-b]pyridazine] came in with a Kd of 101 to 500 nM.
Then `c1cc(-c2ccc3nnn(-c4ccc5[nH]cnc5c4)c3n2)ccn1` [Compound 59, 3-(1H-benzo[d]imidazol-5-yl)-5-(pyridin-4-yl)-3H-[1,2,3]triazolo[4,5-b]pyridine], with 0.5 to 100 nM; and `NC(=O)c1ccnc(-n2cnc3ccc(-c4ccncc4)c(F)c32)c1` [Compound 12, 2-(7-fluoro-6-(pyridin-4-yl)-1H-benzo[d]imidazol-1-yl)isonicotinamide], with 101 to 500 nM; and `Cc1nc2ccc(-c3ccncc3)nc2n1-c1ccc(CN2CCN(C)CC2)cc1` [Compound 125, 2-methyl-3-(4-((4-methylpiperazin-1-yl)methyl)phenyl)-5-(pyridin-4-yl)-3H-imidazo[4,5-b]pyridine], with 0.5 to 100 nM.
Next, `Cc1nc2ccc(-c3ccncc3)nc2n1-c1ccc(Cl)cn1` [Compound 141, 3-(5-chloropyridin-2-yl)-2-methyl-5-(pyridin-4-yl)-3H-imidazo[4,5-b]pyridine]: 0.5 to 100 nM.
On to `Cc1nc2ccc(-c3ccnc(N)c3)nc2n1-c1cccc(CN2CCOCC2)c1` [Compound 153, 4-(2-methyl-3-(3-(morpholinomethyl)phenyl)-3H-imidazo[4,5-b]pyridin-5-yl)pyridin-2-amine], for which the Kd is 0.5 to 100 nM.
For `FC1(F)CCCN(Cc2ccc(-c3cnc4ccc(-c5ccncc5)nn34)cc2)C1` [Compound 95], the Kd lay in the range of 501 to 10000 nM.
Then `Cc1nc2cccnc2n1-c1ccc(CN2CCOCC2)cc1` [Compound 177, 4-(4-(2-methyl-3H-imidazo[4,5-b]pyridin-3-yl)benzyl)morpholine], with 501 to 10000 nM.
`c1cc(-c2ccc3ncc(-c4ccc(N5CCCCC5)nc4)n3n2)ccn1` [Compound 74, 3-(6-(piperidin-1-yl)pyridin-3-yl)-6-(pyridin-4-yl)imidazo[1,2-b]pyridazine] returned a Kd of 101 to 500 nM.
Then `Cc1nc2ccc(-c3ccncc3)nc2n1-c1ncc(CN2CCCC(F)(F)C2)s1` [Compound 62, 5-((3,3-difluoropiperidin-1-yl)methyl)-2-(2-methyl-5-(pyridin-4-yl)-3H-imidazo[4,5-b]pyridin-3-yl)thiazole], with 0.5 to 100 nM; and `Cc1nc2ccc(-c3ccnc(N)c3)nc2n1-c1ccc(N2C[C@H]3C[C@H]2CO3)nc1` [Compound 160, 4-(3-(6-((1R,4S)-2-oxa-5-azabicyclo[2.2.1]heptan-5-yl)pyridin-3-yl)-2-methyl-3H-imidazo[4,5-b]pyridin-5-yl)pyridin-2-amine], with 0.5 to 100 nM; and `Cc1nc2ccc(-c3ccnc(Cl)c3)nc2n1-c1ccc(CN2CCOCC2)cc1` [Compound 176, 4-(4-(5-(2-chloropyridin-4-yl)-2-methyl-3H-imidazo[4,5-b]pyridin-3-yl)benzyl)morpholine], with 0.5 to 100 nM.
Next, `Cc1nc2ccc(-c3ccncc3)nc2n1-c1ccc(CN2CCN(C3COC3)CC2)cc1` [Compound 63, 2-methyl-3-(4-((4-(oxetan-3-yl)piperazin-1-yl)methyl)phenyl)-5-(pyridin-4-yl)-3H-imidazo[4,5-b]pyridine]: 0.5 to 100 nM.
Then `CC(=O)N1CCN(Cc2ccc(-n3c(C)nc4ccc(-c5ccncc5)nc43)cc2)CC1` [Compound 116, 1-(4-(4-(2-methyl-5-(pyridin-4-yl)-3H-imidazo[4,5-b]pyridin-3-yl)benzyl)piperazin-1-yl)ethan-1-one], with 0.5 to 100 nM; and `Cc1nc2cc(-n3c(C)nc4ccc(-c5ccncc5)nc43)ccc2o1` [Compound 35, 2-methyl-5-(2-methyl-5-(pyridin-4-yl)-3H-imidazo[4,5-b]pyridin-3-yl)benzo[d]oxazole], with 101 to 500 nM.
Molecule `Cc1nc2ccc(-c3ccnc4[nH]ccc34)nc2n1-c1cccc(CN2CCOCC2)c1` [Compound 178, 4-(3-(2-methyl-5-(1H-pyrrolo[2,3-b]pyridin-4-yl)-3H-imidazo[4,5-b]pyridin-3-yl)benzyl)morpholine] showed an equilibrium dissociation constant (Kd) of 0.5 to 100 nM.
Then `Cc1nc2ccc(-c3ccnc(N)c3)nc2n1-c1ccc(N2CCS(=O)(=O)CC2)c(F)c1` [Compound 182, 4-(4-(5-(2-aminopyridin-4-yl)-2-methyl-3H-imidazo[4,5-b]pyridin-3-yl)-2-fluorophenyl)thiomorpholine 1,1-dioxide], with 0.5 to 100 nM.
Then `COc1cccc(-c2cnc3ccc(-c4ccncc4)nn23)c1` [Compound 75, 3-(3-methoxyphenyl)-6-(pyridin-4-yl)imidazo[1,2-b]pyridazine], with 501 to 10000 nM; and `COC(=O)c1ccc(-n2cnc3cc(F)c(-c4ccncc4)cc32)cc1` [Compound 7, methyl 4-(5-fluoro-6-(pyridin-4-yl)-1H-benzo[d]imidazol-1-yl)benzoate], with 101 to 500 nM; and `Cc1nc2ccc(-c3cnn(C)c3)nc2n1-c1ccc(N2CCOCC2)c(F)c1` [Compound 146, 4-(2-fluoro-4-(2-methyl-5-(1-methyl-1H-pyrazol-4-yl)-3H-imidazo[4,5-b]pyridin-3-yl)phenyl)morpholine], with 0.5 to 100 nM.
Then `Cc1nc2ccc(-c3ccncc3)nc2n1-c1ccc2[nH]c(C(F)(F)F)nc2c1` [Compound 34, 2-methyl-5-(pyridin-4-yl)-3-(2-(trifluoromethyl)-1H-benzo[d]imidazol-5-yl)-3H-imidazo[4,5-b]pyridine], with 0.5 to 100 nM; and `Cc1nc2ccc(-c3cnn(C4CC4)c3)nc2n1-c1ccc(N2CCOCC2)c(F)c1` [Compound 147, 4-(4-(5-(1-cyclopropyl-1H-pyrazol-4-yl)-2-methyl-3H-imidazo[4,5-b]pyridin-3-yl)-2-fluorophenyl)morpholine], with 0.5 to 100 nM; and `Cc1nc2ccc(-c3ccncc3)nc2n1-c1ccc(N2CCN(C)CC2)cc1` [Compound 132, 2-methyl-3-(4-(4-methylpiperazin-1-yl)phenyl)-5-(pyridin-4-yl)-3H-imidazo[4,5-b]pyridine], with 0.5 to 100 nM.
In turn, `Cc1cc(-c2ccc3nc(C)n(-c4ccc(N5CCOCC5)c(F)c4)c3n2)ccn1` [Compound 145, 4-(2-fluoro-4-(2-methyl-5-(2-methylpyridin-4-yl)-3H-imidazo[4,5-b]pyridin-3-yl)phenyl)morpholine] yielded a Kd of 0.5 to 100 nM.
Next, `c1cc(-c2ccc3ncc(-c4ccc5c(c4)OCO5)n3n2)ccn1` [Compound 23, 3-(benzo[d][1,3]dioxol-5-yl)-6-(pyridin-4-yl)imidazo[1,2-b]pyridazine]: 0.5 to 100 nM.
Next, `Cc1cc(-c2ccc3ncc(-c4ccc(N5CCCCC5)nc4)n3n2)ccn1` [Compound 81, 6-(2-methylpyridin-4-yl)-3-(6-(piperidin-1-yl)pyridin-3-yl)imidazo[1,2-b]pyridazine]: 101 to 500 nM.
As for `Cc1nc2ncc(-c3ccncc3)nc2n1-c1ccc(N2CCOCC2)cc1` [Compound 129, 4-(4-(2-methyl-6-(pyridin-4-yl)-1H-imidazo[4,5-b]pyrazin-1-yl)phenyl)morpholine], the Kd lay in the range of 501 to 10000 nM.
Next, `Cc1nc2ccc(-c3ccnc(N)c3)nc2n1-c1ccc(F)c(N2CCOCC2)c1` [Compound 173, 4-(3-(4-fluoro-3-morpholinophenyl)-2-methyl-3H-imidazo[4,5-b]pyridin-5-yl)pyridin-2-amine]: 0.5 to 100 nM; `Cc1nc2ccc(-c3ccncc3)nc2n1-c1ccc(CN2CCOCC2)nc1` [Compound 133, 4-((5-(2-methyl-5-(pyridin-4-yl)-3H-imidazo[4,5-b]pyridin-3-yl)pyridin-2-yl)methyl)morpholine]: 101 to 500 nM.

Values taken from US12054483B2, “Small molecule inhibitors of DYRK/CLK and uses thereof” (Arizona Board of Regents on Behalf of the University of …, priority 2018, dated 2024).
